{"source": "patent US20220332836A1", "about": "“A METHOD FOR PREVENTING HUMAN VIRUS ASSOCIATED DISORDERS IN PATIENTS” (NOVARTIS AG, priority 2019, published 2022)", "key": {"[1]": {"conditions": "in vivo", "experimental": "(§1) Inflammatory lesions in the kidneys and lungs of 2 animals at 50 mg/kg were noted, and in one of the two animals, lesions in the eyes and trachea were also noted. […] In view of these inflammatory findings, the No Observed Adverse Effect Level (NOAEL) for the 13-week toxicity study was set at 10 mg/kg. […] The NOAEL derived from the 26-week cynomolgus monkey study is considered the most relevant for supporting the clinical dosing regimen."}, "[2]": {"test_system": "monocyte-derived dendritic cells (DCs)", "experiment": "Cytokine production by monocyte-derived dendritic cells", "type": "cell-based", "experimental": "(§2) mAb1 binds to human CD40 with high affinity (Kd of 0.3 nM)."}, "[3]": {"experiment": "13-week GLP rhesus monkey toxicity study", "type": "in vivo", "experimental": "as §1\n(§3) Adequate safety margin from preclinical toxicological studies: GLP toxicology studies to date have tested CFZ533 at (i) weekly s.c. dosing for 13 weeks at 10, 50, and 150 mg/kg (s.c. and i.v.) in rhesus monkeys, and (ii) weekly s.c. dosing for 26 weeks at 1, 50, and 150 mg/kg in cynomolgus monkeys."}, "[4]": {"test_system": "Fcγ receptors (including CD16)", "experiment": "Fcγ receptor binding"}, "[5]": {"test_system": "EBV-seropositive EBV-B cell/T cell co-cultures", "experiment": "EBV-B cell/T cell co-culture, EBV-seropositive donors"}, "[6]": {"conditions": "in vivo", "remark": "listed apart in the source"}, "[7]": {"test_system": "CD40", "parameters": "species or system cynomolgus monkeys", "conditions": "cynomolgus monkey, in vivo", "experimental": "In a PK/PD study in cynomolgus monkeys, the inflection point (about 10 μg/mL) in the PK profiles was associated with a drop of CD40 saturation, as determined in an independent lymphocyte target saturation assay. As such this inflection point is viewed as a marker for the level of saturation of CD40, and an evidence for target engagement. […] Monkeys were immunized with KLH three times (the first was about 3 weeks prior to dosing, the second was 2 weeks after mAb1 administration, and the third was after complete wash-out of mAb1). […]"}, "[8]": {"target": "T1, CD40 (Homo sapiens, UniProt P25942)", "T1 construct": "CD40 occupancy on peripheral B cells measuring free CD40 and total CD40; endogenous in cells; host or cells: peripheral / whole blood B cells of healthy subjects and rheumatoid arthritis patients (in vivo)", "T1 sequence (P25942 21-277)": "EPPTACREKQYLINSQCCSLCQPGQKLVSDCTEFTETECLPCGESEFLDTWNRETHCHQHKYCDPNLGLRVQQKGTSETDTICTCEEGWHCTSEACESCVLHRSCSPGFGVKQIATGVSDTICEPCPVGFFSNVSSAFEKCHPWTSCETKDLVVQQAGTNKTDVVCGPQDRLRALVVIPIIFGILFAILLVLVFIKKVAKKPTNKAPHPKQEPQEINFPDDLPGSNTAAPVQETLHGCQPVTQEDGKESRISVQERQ", "experiment": "CD40 receptor occupancy and CD154-induced CD69 expression in human whole blood cultures", "type": "cell-based", "conditions": "CD20 positive B cells", "from_the_text": "In addition, mAb1 can disrupt established germinal centers (GCs) in vivo. The CD40 receptor occupancy and functional activity were simultaneously assessed in vitro using human whole blood cultures. Functional activity was quantified via CD154-induced expression of CD69 (the activation marker) on CD20 positive cells (B cells) and CD40 occupancy was monitored using fluorescently labeled mAb1."}, "[9]": {"test_system": "antibody-dependent cellular cytotoxicity or complement-dependent cytotoxicity", "experiment": "ADCC / CDC mediation", "type": "cell-based", "experimental": "Currently, CFZ533/Iscalimab is in clinical development for inhibition of transplant organ rejection and therapy for autoimmune diseases.\nas §2"}, "[10]": {"test_system": "EBV-seronegative EBV-B cell/T cell co-cultures", "experiment": "EBV-B cell/T cell co-culture, EBV-seronegative donors", "type": "cell-based, human"}, "[11]": {"test_system": "T cell-dependent antibody responses (TDAR)", "experiment": "In vivo T cell-dependent antibody responses and germinal centers"}, "[12]": {"experiment": "26-week chronic toxicity study in cynomolgus monkeys", "type": "in vivo", "conditions": "for mean Cmax,ss: sc", "experimental": "as §1, §3\nIn the 26-week toxicity study in cynomolgus monkey, at steady state, an average concentration of 8300 μg/mL (Cav,ss) was obtained after weekly dosing at 150 mg/kg (NOAEL).\nThe 10 mg/kg i.v. regimen was expected to provide, throughout the entire treatment period (placebo-controlled and open-label, see FIG. 3), sustained plasma concentrations above 40 μg/mL, to anticipate for higher CD40 expression in tx patients, and incomplete PD effects in target tissue due to loss of target saturation."}, "[13]": {"conditions": "10-200 μg/mL, priming, recall, priming and recall, 11 days"}, "[14]": {"conditions": "10 μg/mL (priming only; priming and recall) and 50 μg/mL (recall only)"}, "[15]": {"conditions": "cynomolgus monkey, in vivo, 150 mg/kg"}}, "data": [{"substance": "CFZ533: fully human monoclonal Fc-silent, non-depleting anti-CD40 antibody (IgG1/K); heavy chain SEQ ID NO: 9, light chain SEQ ID NO: 10", "values": [{"measurement": "organ toxicities", "setting": "[1]", "value": "did not reveal any significant organ toxicities"}, {"measurement": "thromboembolic events", "setting": "[1]", "value": "no evidence of thromboembolic events"}, {"measurement": "induction of cytokine production by monocyte-derived dendritic cells", "setting": "[2]", "value": "does not induce"}, {"measurement": "No Observed Adverse Effect Level (NOAEL)", "setting": "[3]; 13-week toxicity study", "value": 10, "unit": "mg/kg"}, {"measurement": "major toxicology findings", "setting": "[3]; weekly dosing 13 weeks at 10, 50, 150 mg/kg", "value": "did not reveal any major finding"}, {"measurement": "binding to Fcγ receptors (including CD16)", "setting": "[4]", "value": "does not bind"}, {"measurement": "CD3+ T cell proliferation", "setting": "[5]; [13]", "value": "no reducing effect"}, {"measurement": "CD4+ T cell proliferation", "setting": "[5]; [13]", "value": "no decreasing effect"}, {"measurement": "CD4+ T cell proliferation", "setting": "[5]; priming only phase", "value": "slight decline"}, {"measurement": "inflection point of non-linear serum concentration-time profiles", "setting": "[6]", "value": "10 to 20", "unit": "µg/mL"}, {"measurement": "inflection point in the PK profiles (drop of CD40 saturation)", "setting": "[7]", "value": "about 10 μg/mL"}, {"measurement": "CD40 occupancy required for full inhibition of rCD154-induced CD69 expression", "setting": "[8]", "value": "Almost complete"}, {"measurement": "mediation of ADCC or CDC", "setting": "[9]; listed as CFZ533/Iscalimab", "value": "incapable of mediating"}, {"measurement": "mediation of ADCC or CDC", "setting": "[9]; listed as mAb1", "value": "does not"}, {"measurement": "CD4+ T cell proliferation", "setting": "[10]; [14]", "value": "slight not significant increase"}, {"measurement": "CD8+ T cell proliferation", "setting": "[10]; [14]", "value": "slight not significant increase"}, {"measurement": "CD4+ T cell proliferation", "setting": "[10]; 10-200 μg/mL, all three conditions", "value": "no effects"}, {"measurement": "CD3+ T cell proliferation", "setting": "[10]; [13]", "value": "no reducing effect"}, {"measurement": "CD8+ T cell proliferation", "setting": "[10]; all tested concentrations", "value": "no major effects"}, {"measurement": "established germinal centers (GCs)", "setting": "[11]", "value": "can disrupt"}, {"measurement": "primary and secondary T cell-dependent antibody responses (TDAR)", "setting": "[11]", "value": "blocks"}, {"measurement": "average steady state plasma concentration with complete suppression of germinal centers in cortical B cell areas of lymph nodes", "setting": "[12]; 1 mg/kg dose group", "value": "> 38", "unit": "µg/mL"}, {"measurement": "NOAEL", "setting": "[12]; 26-week, cynomolgus", "value": 150, "unit": "mg/kg"}, {"measurement": "adverse findings", "setting": "[12]; cynomolgus monkey, in vivo", "value": "no adverse, mAb1-related findings"}, {"measurement": "average concentration at steady state (Cav,ss)", "setting": "[12]; [15]", "value": 8300, "unit": "µg/mL"}, {"measurement": "systemic exposure (AUC, steady state) over a 1-month period", "setting": "[12]; [15]", "value": 232400, "unit": "µg·days/mL"}, {"measurement": "mean Cmax,ss", "setting": "[12]; cynomolgus monkey, in vivo, 1 mg/kg", "value": 44, "unit": "µg/mL"}, {"measurement": "mean Cmax,ss", "setting": "[12]; cynomolgus monkey, in vivo, 50 mg/kg", "value": 3235, "unit": "µg/mL"}, {"measurement": "GCs in cortical B-cell areas of the spleen and lymphatic tissues", "setting": "[12]; post-mortem histological and immuno-histological evaluation", "value": "decrease"}, {"measurement": "Cmax margin: cynomolgus Cmax,ss at NOAEL versus expected human Cmax", "setting": "[12]; proposed intravenous regimen", "value": 24, "unit": "fold"}]}]}
